Results taken from patent US20030161893A1, “PTPase inhibitors and methods of using the same” (priority 2001, published 2003).

How the values were obtained:
NB4 cells = test: NB4 cell differentiation (NBT reduction, CD11b); type: cell-based, human
Description: Differentiation of AML cell lines was assessed by their ability to produce superoxide as measured by reduction of NBT to formazan and by analysis of expression of CD11b surface marker by flow cytometry. For NBT reduction, each cell suspension was mixed with an equal volume of solution containing 1 mg/ml of NBT (Sigma) and 2.5 μg/ml of TPA for 30 minutes at 37° C. After incubation, cells containing the purple formazan deposits and cells devoid of NBT-reducing activity (white cells) in each sample were determined by counting 200 cells under microscope. Data is expressed as a percentage based on the following ratio: purple cells/purple+white cells. For analysis of cell surface antigens, cells were exposed to phycoerythrin (PE)-conjugated murine anti-human CD11b (DAKO Corp., Carpinteria, Calif.). Analysis of fluorescence was performed on a FACScan flow cytometer (Beckton Dickinson, Mountain View, Calif.).

Flag-PRL-3 = target: T1, Flag-PRL-3 (Homo sapiens, UniProt O75365); test: Immunocomplex PTPase assay, Flag-PRL-3 NIH3T3 transfectants; type: cell-based; conditions: cells treated 5 min
T1 construct: expressed in transfected cells
Description: Immunocomplex PTPase assays were performed to assess the effects of sodium stibogluconate on intracellular PTPases. Cells were untreated or treated with sodium stibogluconate for 5 minutes, washed with fresh medium and then lysed in cold lysis buffer (50 mM Tris, pH 7.4; 150 mM NaCl; 1% NP40; 2 mM PMSF; 20 ,g/ml of Aprotinin). The lysates were incubated with an anti-Flag antibody in immunoprecipitation assays. The immunocomplexes were collected with protein G sepharose beads (Pharmacia) and washed in cold lysis buffer for 4 times. […] 100 μL of malachite green solution (UBI) was added to each reaction prior to measurement of OD660 to quantify the amounts of free phosphate cleaved by the PTPases from the peptide substrate (Pathak et al., J. Imumol. 167, 3391 (2001)). The remaining 10% contents of individual samples were analyzed by SDS-PAGE/Western blotting to quantify the relative amounts of the phosphatase proteins. […]
The effects of sodium stibogluconate on intracellular PTPases were assessed using NIH3T3 or WM9 transfectants. […]

Baf3 cells = test: Baf3 cell proliferation assay; type: cell-based, murine
Description: The murine hematopoietic cell line Baf3 was maintained in RPMI 1640 medium supplemented with 10% fetal calf serum (FCS) and murine IL-3 (20 units/ml) as described previously in Damen et al., J. Biol. Chem. 270, 23402 (1995). Human myeloid cell line TF-1 was maintained in RPMI 1640 supplemented with 10% FCS and 40 ng/ml of recombinant human GM-CSF as described previously in Thomassen et al., Clin. Immunol. 95, 85 (2000). For cell proliferation assays, cells were washed in 10% FCS medium twice, resuspended in 10% FCS medium, incubated at 37° C. for 16 hours, and then cultured at 37° C. in 10% FCS medium containing various amounts of cytokines, sodium stibogluconate, or potassium antimonyl tartrate for 3-6 days as indicated. The cell numbers in proliferation assays were determined by an MTT assay or by microscopic cell counting as indicated.

MDA231 cells = test: Cell proliferation assay (MTT), MDA231 breast cancer cells; type: cell-based, human
Description: For cell proliferation assays, cells were grown in 10% FCS culture medium containing various amounts of IFNs and/or sodium stibogluconate in 96 well plates and cultured at 37° C. for 3 or 6 days as indicated. The numbers of viable cells in proliferation assays were determined by MTT assays as described in Phatak et al., J. Immunol. 167, 3391 (2001).

Jak2/Stat5 = test: IL-3-induced Jak2/Stat5 tyrosine phosphorylation in Baf3 cells; type: cell-based, murine
Description: For induction of cellular protein phosphorylation by sodium stibogluconate or pervanadate, Baf3 cells were incubated in 0.1% FCS-RPMI 1640 medium at 37° C. for 16 hours. The cells were then washed twice in RPMI 1640 medium and incubated with sodium stibogluconate or pervanandate (0.1 mM) for various times prior to termination by lysing cells in cold lysis buffer (50 mM Tris, pH 7.4; 150 mM NaCl; 0.2 mM Na3VO4; 20 mm NaF; 1% Nonidet P-40; 2 mM PMSF; 20 μg/ml of Aprotinin and 1 mM of sodium molybdic acid). To determine the effect of sodium stibogluconate or potassium antimonyl tartrate on IL-3-induced Jak/Stat phosphorylation, Baf3 cells were deprived of the growth factor for 16 hours in 0.1% FCS RPMI 1640 medium and then incubated with or without sodium stibogluconate or potassium antimonyl tartrate for 10 minutes. IL-3 was next added to the cell suspension and incubated for various times. The Cells were then harvested and lysed in cold lysis buffer at 4° C. for 45 minutes. Total cell lysates (TCL) were separated in SDS-PAGE gels, blotted onto nitrocellulose membrane (Schleicher & Schuell), probed with specific antibodies and detected using an enhanced chemiluminescence kit (ECL, Amersham, Arlington Heights, Ill.).

T1 sequence (O75365 whole entry): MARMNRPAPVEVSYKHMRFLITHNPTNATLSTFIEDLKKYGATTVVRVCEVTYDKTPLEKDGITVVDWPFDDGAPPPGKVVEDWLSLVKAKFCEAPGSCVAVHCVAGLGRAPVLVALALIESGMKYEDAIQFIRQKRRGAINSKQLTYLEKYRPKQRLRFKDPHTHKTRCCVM

Question: For O.O.O.O.O.O.O.O.O.O=C([O-])[C@@H]1[O][Sb]2([O-])([O][Sb]34([OH])[O][C@H]([C@H](O)CO)[C@H]([O]3)[C@H](C(=O)[O-])[O]4)[O][C@H]([C@H](O)CO)[C@@H]1[O]2.[Na+].[Na+].[Na+] [sodium stibogluconate], which “interaction with ATRA in differentiation induction” value (NB4 cells) is on record?
Answer: did not synergize with ATRA

Question: And the “reversibility of induced NB4 differentiation after drug removal” value (NB4 cells; 6 days with drug (10 or 100 μg/ml), washed, 6 days without)?
Answer: not reversed

Question: What about the “PTPase activity of anti-Flag immunocomplexes, Flag-PRL-3” value (Flag-PRL-3) of the same molecule?
Answer: lack of PTPase activity

Question: What about the “IL-3-induced Baf3 growth at high concentration” value (Baf3 cells; 1,000 μg/ml) of the same molecule?
Answer: suppressed IL-3-induced Baf3 growth

Question: What about the “Baf3 proliferation/viability in the absence of IL-3” value (Baf3 cells; day 3 culture) of the same molecule?
Answer: failed to support cell proliferation or maintain cell viability

Question: What about the “killing of MDA231 cells, single agent” value (MDA231 cells; 50 μg/ml and 100 μg/ml, day 6 culture) of the same molecule?
Answer: killed all cells

Question: And the “IFN-alpha-induced growth inhibition of MDA231 in presence of drug” value (MDA231 cells; day 6)?
Answer: augmented

Question: What about the “phosphotyrosine levels of Jak2 and Stat5 versus cells without drug” value (Jak2/Stat5; IL-3 stimulated, densitometry) of the same molecule?
Answer: about twice

Question: And the “Jak2/Stat5 tyrosine phosphorylation by drug alone” value (Jak2/Stat5; no IL-3, 37° C. for 16 hours)?
Answer: failed to induce Jak2/Stat5 tyrosine phosphorylation
